Experimental data reported in patent US10160726B2, “Quinolone derivatives as antibacterials” (priority 2014, dated 2018).
≈ marks a conversion by molar mass, not a printed value. Where a name gives a salt, the structure may show the parent alone. Read-outs that look alike come from different tables or passages of the source.

What was measured:
[1] = target: E. coli DNA gyrase (GyrA-B) (Escherichia coli, UniProt P0AES4); assay: Supercoiling assay of E. coli gyrase; assay type: biochemical
Protocol: Method 1: Supercoiling Assay of E. Coli Gyrase
Enzymatic activity of E. coli DNA gyrase reconstituted from its purified subunits was assessed by monitoring the introduction of supercoils into the relaxed plasmid pHOT-1 (TopoGEN, TG2035-3). To form the functional gyrase A2B2 heterotetrameric enzyme, equal molar concentrations of the GyrA and GyrB subunits were combined at high protein concentration (500 nM) and incubated on ice for 1 hour prior to assay start in reaction buffer without ATP or the pHOT-1 plasmid. The reaction mixture (25 μl) contained 10 nM enzyme, 10 ng/μl pHOT-1, 1 mM ATP, 35 mM Tris-HCl pH 7.5, 24 mM KCl, 4 mM MgCl2, 2 mM DTT, 1.8 mM spermidine, 6.5% glycerol, and 100 μg/ml bovine serum albumin. The reaction was carried out at 37° C. for 90 minutes and terminated by the addition of 2.5 μl of 10× stop solution (0.9% SDS, 50% glycerol, 0.05% bromophenol blue). […] Gels were stained with ethidium bromide (0.5 μg/ml) for 30 minutes and destained in water for 20 minutes. All gels were analyzed using the BIO-RAD ChemiDocTm XRS+ with Image Lab 3.0 software. The 50% inhibition concentration (IC50) was determined as being the compound concentration at which the supercoiled band was reduced by 50% from the DMSO drug free control (Microsoft Excel 2010 IDBS XLfit, GraftPad Prism 6).

[2] = target: E. coli DNA topoisomerase IV (Topo IV, ParC-E) (Escherichia coli, UniProt P0AFI2); assay: Decatenation assay of E. coli Topo IV; assay type: biochemical
Protocol: Method 2: Decatenation Assay of E. Coli Topo IV
Enzymatic activity of the E. coli DNA topoisomerase IV (Topo IV) reconstituted from its purified subunits was monitored by the decatenation of kinetoplast DNA into minicircles (kDNA, TopoGEN, TG2013-3). To form the functional Topo IV C2E2 heterotetrameric enzyme, equal molar concentrations of the ParC and ParE subunits were combined at high protein concentration (500 nM) and incubated on ice for 1 hour prior to assay start in reaction buffer without ATP or the kDNA. […] The reaction was carried out at 37° C. for 2 hours and terminated by the addition of 2.5 μl of 10× stop solution (0.9% SDS, 50% glycerol, 0.05% bromophenol blue). […] Gels were stained with ethidium bromide (0.5 μg/ml) for 30 minutes and distained in water for 20 minutes. All gels were analyzed using the BIO-RAD ChemiDoc™ XRS^+ with Image Lab 3.0 software. The 50% inhibitor concentration (IC50) was determined as being the compound concentration at which the presence of the kDNA minicircles in the gel was reduced by 50% from the DMSO drug free control (Microsoft Excel 2010 IDBS XLfit, Graph Pad Prism 6).

[3] = tested on: E. coli ATCC 25922 (NB27001); assay: MIC, broth microdilution (CLSI); assay type: cell-based; conditions: Escherichia coli, ATCC25922; E. coli ATCC 25922; 35° C., 20 hours; read-out: Antibacterial activity (MIC) NB27001
[4] = tested on: E. coli NB27177 (efflux deficient CGSC 11430, ΔtolC732::kan); assay: microbe, parasite or virus in culture; assay type: cell-based; conditions: Escherichia coli, 20 h, read-out: Antibacterial activity (MIC) NB27177
[5] = tested on: P. aeruginosa NB52019 (wild-type PAO1); assay: MIC, broth microdilution (CLSI); assay type: cell-based; conditions: Pseudomonas aeruginosa, read-out: Antibacterial activity (MIC) NB52019
[6] = tested on: P. aeruginosa NB52023 (efflux deficient K1542, ΔmexX ΔmexB); assay: microbe, parasite or virus in culture; assay type: cell-based; conditions: Pseudomonas aeruginosa, 20 h, read-out: Antibacterial activity (MIC) NB52023
[7] = tested on: P. aeruginosa NB52023-CDK0006 (gyrA T83I, parC S87L); assay: microbe, parasite or virus in culture; assay type: cell-based; conditions: Pseudomonas aeruginosa, 20 h, read-out: Antibacterial activity (MIC) NB52023-CDK0006
[8] = tested on: S. aureus ATCC 29213 (NB01001); assay: MIC, broth microdilution (CLSI); assay type: cell-based; conditions: Staphylococcus aureus, ATCC29213; S. aureus ATCC 29213; 35° C., 20 hours; read-out: Antibacterial activity (MIC) NB01001
[9] = tested on: S. aureus NB01006-AVR005 (gyrA S84L, grlA S80F, grlB E471K); assay: microbe, parasite or virus in culture; assay type: cell-based; conditions: Staphylococcus aureus, 20 h, read-out: Antibacterial activity (MIC) NB01006-AVR005
[10] = P. aeruginosa wild-type PAO1, 35° C., 20 hours
[11] = supercoiling activity of E. coli gyrase (GyrA-B), read-out: GyrA-B IC50 (Enzyme)
[12] = decatenation activity of E. coli topoIV (ParC-E), read-out: ParC-E IC50 (Enzyme)

E. coli DNA gyrase (GyrA-B), sequence (P0AES4 whole entry): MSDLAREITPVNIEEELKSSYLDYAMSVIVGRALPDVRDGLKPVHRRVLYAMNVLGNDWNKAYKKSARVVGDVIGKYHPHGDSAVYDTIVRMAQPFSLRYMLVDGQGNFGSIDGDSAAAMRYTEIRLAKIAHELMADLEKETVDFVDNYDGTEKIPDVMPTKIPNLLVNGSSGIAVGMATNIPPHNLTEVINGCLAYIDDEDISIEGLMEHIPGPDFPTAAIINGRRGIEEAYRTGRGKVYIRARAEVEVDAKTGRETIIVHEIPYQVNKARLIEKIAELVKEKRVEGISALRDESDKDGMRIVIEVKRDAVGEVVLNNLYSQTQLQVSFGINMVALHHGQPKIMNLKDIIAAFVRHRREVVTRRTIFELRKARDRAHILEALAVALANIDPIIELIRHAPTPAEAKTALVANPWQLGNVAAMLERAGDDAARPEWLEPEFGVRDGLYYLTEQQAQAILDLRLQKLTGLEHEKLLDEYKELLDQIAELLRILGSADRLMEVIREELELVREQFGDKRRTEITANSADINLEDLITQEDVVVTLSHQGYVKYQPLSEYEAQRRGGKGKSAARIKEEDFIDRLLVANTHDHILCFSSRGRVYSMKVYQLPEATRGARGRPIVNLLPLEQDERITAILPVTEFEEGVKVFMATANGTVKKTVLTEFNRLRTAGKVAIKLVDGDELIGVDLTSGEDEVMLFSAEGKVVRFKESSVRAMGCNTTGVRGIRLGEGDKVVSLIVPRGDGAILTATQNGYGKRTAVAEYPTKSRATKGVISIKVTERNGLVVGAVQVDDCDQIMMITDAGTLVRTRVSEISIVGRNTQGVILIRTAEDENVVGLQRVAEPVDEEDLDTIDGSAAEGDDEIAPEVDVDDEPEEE
E. coli DNA topoisomerase IV (Topo IV, ParC-E), sequence (P0AFI2 whole entry): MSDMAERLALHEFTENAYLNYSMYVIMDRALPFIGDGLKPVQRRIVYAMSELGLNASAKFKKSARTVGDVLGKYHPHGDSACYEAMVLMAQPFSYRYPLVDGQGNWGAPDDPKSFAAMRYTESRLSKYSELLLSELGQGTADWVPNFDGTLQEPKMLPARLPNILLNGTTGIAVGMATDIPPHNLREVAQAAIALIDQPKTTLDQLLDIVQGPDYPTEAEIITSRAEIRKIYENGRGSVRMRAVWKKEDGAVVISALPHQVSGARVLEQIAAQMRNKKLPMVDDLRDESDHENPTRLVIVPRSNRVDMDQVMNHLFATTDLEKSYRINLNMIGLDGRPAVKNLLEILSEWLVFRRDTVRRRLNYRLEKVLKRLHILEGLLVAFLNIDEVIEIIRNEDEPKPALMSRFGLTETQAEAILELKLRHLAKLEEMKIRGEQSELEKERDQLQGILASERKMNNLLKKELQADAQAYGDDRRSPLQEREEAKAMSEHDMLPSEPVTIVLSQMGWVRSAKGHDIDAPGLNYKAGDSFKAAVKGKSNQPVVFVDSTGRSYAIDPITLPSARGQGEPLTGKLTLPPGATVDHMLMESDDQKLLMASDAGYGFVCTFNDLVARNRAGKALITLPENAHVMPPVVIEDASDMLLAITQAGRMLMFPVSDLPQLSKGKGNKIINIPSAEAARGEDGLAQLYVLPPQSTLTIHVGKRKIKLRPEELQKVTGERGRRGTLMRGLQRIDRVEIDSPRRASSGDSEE
E. coli DNA topoisomerase IV (Topo IV, ParC-E), sequence (P20083 whole entry, further chain): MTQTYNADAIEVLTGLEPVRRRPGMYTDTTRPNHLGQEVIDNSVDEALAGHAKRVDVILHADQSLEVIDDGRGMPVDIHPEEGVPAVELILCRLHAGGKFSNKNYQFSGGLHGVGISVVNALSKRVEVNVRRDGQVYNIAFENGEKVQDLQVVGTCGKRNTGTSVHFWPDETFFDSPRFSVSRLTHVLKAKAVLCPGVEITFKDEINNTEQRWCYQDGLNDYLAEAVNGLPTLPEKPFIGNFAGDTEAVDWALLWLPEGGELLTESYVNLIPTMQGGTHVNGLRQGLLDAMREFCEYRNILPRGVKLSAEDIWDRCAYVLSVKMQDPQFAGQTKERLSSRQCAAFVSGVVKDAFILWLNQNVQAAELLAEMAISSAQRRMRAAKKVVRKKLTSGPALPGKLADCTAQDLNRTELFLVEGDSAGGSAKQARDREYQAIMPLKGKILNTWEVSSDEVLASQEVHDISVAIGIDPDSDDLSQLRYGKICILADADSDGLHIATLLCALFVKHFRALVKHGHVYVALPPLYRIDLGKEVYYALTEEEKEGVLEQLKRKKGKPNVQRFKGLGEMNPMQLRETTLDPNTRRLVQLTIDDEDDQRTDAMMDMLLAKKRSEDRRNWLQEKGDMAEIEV

SMILES | IC50 [1] [µM] | IC50 [2] [µM] | MIC [3] [µg/mL] | MIC [4] [µg/mL] | MIC [5, 10] [µg/mL] | MIC [6] [µg/mL] | MIC [7] [µg/mL] | MIC [8] [µg/mL] | MIC [9] [µg/mL] | IC50 [1, 11] [µM] | IC50 [2, 12] [µM] | MIC ([5]; PAO1, 20 h) [µg/mL]
Cc1c(N2CC[C@@H]([C@H](C)N)C2)c(F)cc2ccc(=O)n(C3CC3)c12.Cl [Example 9.1, 7-((R)-3-((S)-1-aminoethyl)pyrrolidin-1-yl)-1-cyclopropyl-6-fluoro-8-methylquinolin-2(1H)-one hydrochloride salt] | 1.3 | 9.91 | 1 | < 0.03 | 16 | 4 | 8 | 0.06 | 0.06 | – | – | –
Cc1c(N2CCNCC2)c(F)cc2ccc(=O)n(C3CC3)c12 [Example 9.3, 1-Cyclopropyl-6-fluoro-8-methyl-7-(piperazin-1-yl)quinolin-2(1H)-one] | 11.9 | > 100 | 4 (≈ 13.3 µM) | 0.25 (≈ 0.83 µM) | 32 (≈ 106 µM) | 16 (≈ 53.1 µM) | 16 (≈ 53.1 µM) | 16 (≈ 53.1 µM) | 16 (≈ 53.1 µM) | – | – | –
Cc1c(-c2ccc(N)nc2)c(F)cc2ccc(=O)n(C3CC3)c12 [Example 10, 7-(6-Aminopyridin-3-yl)-1-cyclopropyl-6-fluoro-8-methylquinolin-2(1H)-one] | – | – | 4 (≈ 12.9 µM) | < 0.03 | – | 4 (≈ 12.9 µM) | 8 (≈ 25.9 µM) | 0.25 (≈ 0.808 µM) | 0.25 (≈ 0.808 µM) | 1.2 | 1.93 | > 32
C#Cc1cc(=O)n(C2CC2)c2c(C)c(N3CC[C@@H]([C@H](C)N)C3)c(F)cc12 [Example 25, 7-((R)-3-((S)-1-aminoethyl)pyrrolidin-1-yl)-1-cyclopropyl-4-ethynyl-6-fluoro-8-methylquinolin-2(1H)-one] | – | – | 4 (≈ 11.3 µM) | 0.06 (≈ 0.17 µM) | – | 2 (≈ 5.66 µM) | 4 (≈ 11.3 µM) | 0.06 (≈ 0.17 µM) | < 0.03 | 1.03 | 6.46 | 8 (≈ 22.6 µM)
Cc1c(N2CC[C@@H]([C@H](C)N)C2)c(F)cc2c(C#N)cc(=O)n(C3CC3)c12 [Example 27, 7-((R)-3-((S)-1-aminoethyl)pyrrolidin-1-yl)-1-cyclopropyl-6-fluoro-8-methyl-2-oxo-1,2-dihydroquinoline-4-carbonitrile] | – | – | 1 (≈ 2.82 µM) | < 0.03 | – | 1 (≈ 2.82 µM) | 2 (≈ 5.64 µM) | < 0.03 | < 0.03 | 0.13 | 0.59 | 4 (≈ 11.3 µM)
Cc1c(N2CC[C@H](N)C2)c(F)cc2c(C#N)cc(=O)n(C3CC3)c12 [Example 30, (S)-7-(3-aminopyrrolidin-1-yl)-1-cyclopropyl-6-fluoro-8-methyl-2-oxo-1,2-dihydroquinoline-4-carbonitrile] | – | – | 1 (≈ 3.06 µM) | < 0.03 | – | 1 (≈ 3.06 µM) | 4 (≈ 12.3 µM) | 0.5 (≈ 1.53 µM) | 0.5 (≈ 1.53 µM) | 0.98 | 14.6 | 8 (≈ 24.5 µM)
Cc1c(N2CC[C@@H]([C@H](C)N)C2)c(F)cc2c(C(N)=O)cc(=O)n(C3CC3)c12 [Example 34, 7-((R)-3-((S)-1-aminoethyl)pyrrolidin-1-yl)-1-cyclopropyl-6-fluoro-8-methyl-2-oxo-1,2-dihydroquinoline-4-carboxamide] | – | – | 32 (≈ 85.9 µM) | 2 (≈ 5.37 µM) | – | 16 (≈ 43 µM) | 16 (≈ 43 µM) | 4 (≈ 10.7 µM) | 4 (≈ 10.7 µM) | 0.44 | 5.14 | > 32
Cc1c(N2CC[C@@H]([C@H](C)N)C2)c(F)cc2c(-c3n[nH]c(=O)o3)cc(=O)n(C3CC3)c12 [Example 42, 5-(7-((R)-3-((S)-1-aminoethyl)pyrrolidin-1-yl)-1-cyclopropyl-6-fluoro-8-methyl-2-oxo-1,2-dihydroquinolin-4-yl)-1,3,4-oxadiazol-2(3H)-one] | – | – | 8 (≈ 19.3 µM) | 0.25 (≈ 0.605 µM) | – | 8 (≈ 19.3 µM) | 32 (≈ 77.4 µM) | 0.5 (≈ 1.21 µM) | 0.5 (≈ 1.21 µM) | 0.83 | 1.86 | > 32
Cc1c(N2CC[C@@H]([C@H](C)N)C2)c(F)cc2c(C(=O)NO)cc(=O)n(C3CC3)c12 [Example 43, 7-((R)-3-((S)-1-aminoethyl)pyrrolidin-1-yl)-1-cyclopropyl-6-fluoro-N-hydroxy-8-methyl-2-oxo-1,2-dihydroquinoline-4-carboxamide] | – | – | 32 (≈ 82.4 µM) | 4 (≈ 10.3 µM) | – | > 32 | > 32 | 8 (≈ 20.6 µM) | 16 (≈ 41.2 µM) | 0.56 | 3.35 | > 32
Cc1c(N2CC[C@@H]([C@H](C)N)C2)c(F)cc2c(CN)cc(=O)n(C3CC3)c12 [Example 45, 7-((R)-3-((S)-1-aminoethyl)pyrrolidin-1-yl)-4-(aminomethyl)-1-cyclopropyl-6-fluoro-8-methylquinolin-2(1H)-one] | – | – | 1 (≈ 2.79 µM) | 0.06 (≈ 0.167 µM) | – | 0.5 (≈ 1.39 µM) | 2 (≈ 5.58 µM) | 0.25 (≈ 0.697 µM) | 0.5 (≈ 1.39 µM) | < 0.1 | 0.24 | 2 (≈ 5.58 µM)
Cc1c(N2CC[C@@H]([C@H](C)N)C2)c(F)cc2c(OCc3n[nH]c(=O)o3)cc(=O)n(C3CC3)c12 [Example 64, 5-(((7-((R)-3-((S)-1-aminoethyl)pyrrolidin-1-yl)-1-cyclopropyl-6-fluoro-8-methyl-2-oxo-1,2-dihydroquinolin-4-yl)oxy)methyl)-1,3,4-oxadiazol-2(3H)-one] | – | – | 32 (≈ 72.2 µM) | 4 (≈ 9.02 µM) | – | > 32 | > 32 | 8 (≈ 18 µM) | 4 (≈ 9.02 µM) | 3.2 | – | > 32
Cc1c(N2CC[C@@H]([C@H](C)N)C2)ccc2c(OCC3CCOCC3)cc(=O)n(C3CC3)c12 [Example 73, 7-((R)-3-((S)-1-aminoethyl)pyrrolidin-1-yl)-1-cyclopropyl-8-methyl-4-((tetrahydro-2H-pyran-4-yl)methoxy)quinolin-2(1H)-one TFA salt] | – | – | 32 | 2 | – | > 32 | > 32 | 1 | 4 | 3.01 | 4.97 | > 32
Cc1c(N2CC[C@@H]([C@H](C)N)C2)ccc2c(OCCN(C)C)cc(=O)n(C3CC3)c12 [Example 74, 7-((R)-3-((S)-1-aminoethyl)pyrrolidin-1-yl)-1-cyclopropyl-4-(2-(dimethylamino)ethoxy)-8-methylquinolin-2(1H)-one TFA salt] | – | – | 8 | 0.25 | – | 8 | 16 | 1 | 2 | 0.31 | 0.24 | 32
